Measurements reported in patent EP4745137A1 (Gluetacs Therapeutics (Shanghai) Co., Ltd., priority 2023, dated 2025).
Where two headings read alike, the source gives them in different places. Values belong to the compound of their own block, whether it stands above or below them.

Key:
[1] = molecular target: T1, human Cereblon WT GST-tagged protein (Homo sapiens, UniProt Q96SW2); experiment: CRBN-binding affinity by HTRF (CEREBLON BINDING kit)
T1 construct: purchased CISBIO 64BDCRBNPEH
Procedure: The CEREBLON BINDING kits (specification: 10,000 tests; product number: Catalog # 64BDCRBNPEH; CISBIO company) was used to determine the CRBN binding ability of the compounds to be tested through a HTRF method (homogeneous time-resolved fluorescence). The specific methods are as follows: • 1. […] Specifically, diluent #9 (1X) solution was used as the diluent, and multiple concentration gradients were set. […] Then, 2.5 µL of human Cereblon WT GST-tagged protein solution was added to each well. Finally, 5 µL of the thoroughly mixed Thalidomide-Re reagent and GST Eu antibody working solution were added to each of the aforementioned wells. […] The blank control wells were sequentially added with 2.5 µL of diluent #9 (1X) solution, 2.5 µL of binding buffer, and 5 µL of thoroughly mixed Thalidomide-Re reagent and GST Eu antibody working solution. • 4.

WEE1 = molecular target: T2, WEE1 (Homo sapiens, UniProt P30291+Q96SW2); experiment: Western-blot assay of substrate protein degradation in hPBMCs, WEE1; format: cell-based; details: 24 hours of compound treatment
T2 construct: endogenous in cells; host or cells: hPBMCs (Milecell Biotechnologies)

IKZF2 = molecular target: T3, IKZF2 (Homo sapiens, UniProt Q96SW2+Q9UKS7); experiment: Western-blot assay of substrate protein degradation in hPBMCs, IKZF2; format: cell-based; details: 24 hours of compound treatment
T3 construct: endogenous in cells; host or cells: hPBMCs (Milecell Biotechnologies)

CK1α = molecular target: T4, CK1α (Homo sapiens, UniProt P48729+Q96SW2); experiment: Western-blot assay of substrate protein degradation in hPBMCs, CK1α; format: cell-based; details: 24 hours of compound treatment
T4 construct: endogenous in cells; host or cells: hPBMCs (Milecell Biotechnologies)

IKZF1 = molecular target: T5, IKZF1 (Homo sapiens, UniProt Q13422+Q96SW2); experiment: Western-blot assay of substrate protein degradation in hPBMCs, IKZF1; format: cell-based; details: 24 hours of compound treatment
T5 construct: endogenous in cells; host or cells: hPBMCs (Milecell Biotechnologies)

IKZF3 = molecular target: T6, IKZF3 (Homo sapiens, UniProt Q96SW2+Q9UKT9); experiment: Western-blot assay of substrate protein degradation in hPBMCs, IKZF3; format: cell-based; details: 24 hours of compound treatment
T6 construct: endogenous in cells; host or cells: hPBMCs (Milecell Biotechnologies)

GSPT1 = molecular target: T7, GSPT1 (Homo sapiens, UniProt P15170+Q96SW2); experiment: Western-blot assay of substrate protein degradation in hPBMCs, GSPT1; format: cell-based; details: 24 hours of compound treatment
T7 construct: endogenous in cells; host or cells: hPBMCs (Milecell Biotechnologies)

[2] = HTRF inhibitory activity, CEREBLON BINDING kit; read-out: HTRF IC50
[3] = compounds tested at 50 nM and 500 nM (concentration of the table not stated)
[4] = 50 nM and 500 nM tested (concentration behind the class not stated)

T6 sequence (Q9UKT9 whole entry): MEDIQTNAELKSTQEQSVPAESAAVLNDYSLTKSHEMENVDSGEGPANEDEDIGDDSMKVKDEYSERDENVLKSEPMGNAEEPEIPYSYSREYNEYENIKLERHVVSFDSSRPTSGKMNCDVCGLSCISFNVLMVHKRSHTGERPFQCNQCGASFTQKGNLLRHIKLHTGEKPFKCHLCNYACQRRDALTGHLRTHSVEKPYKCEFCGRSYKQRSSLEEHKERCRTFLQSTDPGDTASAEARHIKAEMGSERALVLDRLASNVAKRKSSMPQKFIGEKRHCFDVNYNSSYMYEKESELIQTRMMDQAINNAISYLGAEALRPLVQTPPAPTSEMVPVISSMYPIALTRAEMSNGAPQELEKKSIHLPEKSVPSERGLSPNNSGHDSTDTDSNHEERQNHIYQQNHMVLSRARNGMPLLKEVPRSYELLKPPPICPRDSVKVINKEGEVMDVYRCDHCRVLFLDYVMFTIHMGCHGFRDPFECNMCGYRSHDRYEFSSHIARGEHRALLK
T6 sequence (Q96SW2 whole entry): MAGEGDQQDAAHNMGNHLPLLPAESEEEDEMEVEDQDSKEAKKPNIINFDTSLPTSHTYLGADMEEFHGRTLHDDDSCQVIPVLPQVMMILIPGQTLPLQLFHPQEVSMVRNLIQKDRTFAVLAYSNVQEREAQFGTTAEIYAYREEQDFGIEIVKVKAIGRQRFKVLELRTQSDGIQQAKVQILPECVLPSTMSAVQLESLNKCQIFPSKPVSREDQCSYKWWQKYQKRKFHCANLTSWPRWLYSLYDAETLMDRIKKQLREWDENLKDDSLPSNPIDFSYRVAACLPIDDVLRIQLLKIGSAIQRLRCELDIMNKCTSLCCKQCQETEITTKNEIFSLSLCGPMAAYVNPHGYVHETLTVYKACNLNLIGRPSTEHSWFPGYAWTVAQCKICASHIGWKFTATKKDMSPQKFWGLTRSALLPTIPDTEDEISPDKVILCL
T6 sequence (Q16531 whole entry partner): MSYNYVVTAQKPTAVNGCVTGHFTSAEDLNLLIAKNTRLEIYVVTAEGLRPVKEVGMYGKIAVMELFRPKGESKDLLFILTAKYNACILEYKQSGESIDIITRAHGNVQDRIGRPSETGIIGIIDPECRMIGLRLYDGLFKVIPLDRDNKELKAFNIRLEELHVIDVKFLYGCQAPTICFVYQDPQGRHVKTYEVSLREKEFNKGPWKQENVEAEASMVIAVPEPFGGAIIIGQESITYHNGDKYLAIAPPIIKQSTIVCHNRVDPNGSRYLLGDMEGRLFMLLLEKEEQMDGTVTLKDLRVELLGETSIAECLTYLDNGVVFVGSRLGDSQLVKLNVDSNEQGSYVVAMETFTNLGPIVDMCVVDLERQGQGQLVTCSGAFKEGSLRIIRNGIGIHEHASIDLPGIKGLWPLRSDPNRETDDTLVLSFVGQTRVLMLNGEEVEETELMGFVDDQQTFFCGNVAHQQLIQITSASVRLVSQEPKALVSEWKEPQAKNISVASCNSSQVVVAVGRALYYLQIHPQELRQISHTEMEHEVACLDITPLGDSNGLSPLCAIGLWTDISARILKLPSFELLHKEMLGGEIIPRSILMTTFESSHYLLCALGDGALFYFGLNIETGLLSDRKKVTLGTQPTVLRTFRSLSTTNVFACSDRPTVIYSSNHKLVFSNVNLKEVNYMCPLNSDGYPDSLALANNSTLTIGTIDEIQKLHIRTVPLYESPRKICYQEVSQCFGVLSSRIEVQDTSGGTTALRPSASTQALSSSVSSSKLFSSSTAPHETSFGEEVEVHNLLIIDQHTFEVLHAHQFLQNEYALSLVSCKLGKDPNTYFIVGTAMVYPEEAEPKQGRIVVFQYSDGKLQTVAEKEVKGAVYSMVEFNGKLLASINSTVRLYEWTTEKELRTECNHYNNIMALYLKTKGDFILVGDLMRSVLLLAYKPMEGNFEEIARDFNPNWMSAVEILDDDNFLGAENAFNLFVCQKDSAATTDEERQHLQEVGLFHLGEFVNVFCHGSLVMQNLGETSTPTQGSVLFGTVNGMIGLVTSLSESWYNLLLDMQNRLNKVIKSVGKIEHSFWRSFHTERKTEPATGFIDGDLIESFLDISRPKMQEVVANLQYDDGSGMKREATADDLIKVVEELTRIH
T1 sequence (Q96SW2 whole entry): as the sequence (Q96SW2 whole entry) above
T7 sequence (P15170 whole entry): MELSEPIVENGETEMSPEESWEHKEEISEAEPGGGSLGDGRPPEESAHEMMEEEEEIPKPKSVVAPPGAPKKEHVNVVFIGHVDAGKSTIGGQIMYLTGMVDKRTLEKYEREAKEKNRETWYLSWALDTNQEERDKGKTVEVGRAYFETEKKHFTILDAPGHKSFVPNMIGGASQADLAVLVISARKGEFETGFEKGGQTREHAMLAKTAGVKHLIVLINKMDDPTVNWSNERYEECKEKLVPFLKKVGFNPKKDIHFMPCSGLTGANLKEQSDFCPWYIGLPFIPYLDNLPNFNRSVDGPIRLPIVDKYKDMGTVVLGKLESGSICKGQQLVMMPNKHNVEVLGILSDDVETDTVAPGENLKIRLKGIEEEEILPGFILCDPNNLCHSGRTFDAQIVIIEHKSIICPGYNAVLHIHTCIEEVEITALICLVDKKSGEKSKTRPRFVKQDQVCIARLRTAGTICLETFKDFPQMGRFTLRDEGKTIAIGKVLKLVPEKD
T7 sequence (Q96SW2 whole entry): as the sequence (Q96SW2 whole entry) above
T7 sequence (Q16531 whole entry partner): as the sequence (Q16531 whole entry partner) above
T4 sequence (P48729 whole entry): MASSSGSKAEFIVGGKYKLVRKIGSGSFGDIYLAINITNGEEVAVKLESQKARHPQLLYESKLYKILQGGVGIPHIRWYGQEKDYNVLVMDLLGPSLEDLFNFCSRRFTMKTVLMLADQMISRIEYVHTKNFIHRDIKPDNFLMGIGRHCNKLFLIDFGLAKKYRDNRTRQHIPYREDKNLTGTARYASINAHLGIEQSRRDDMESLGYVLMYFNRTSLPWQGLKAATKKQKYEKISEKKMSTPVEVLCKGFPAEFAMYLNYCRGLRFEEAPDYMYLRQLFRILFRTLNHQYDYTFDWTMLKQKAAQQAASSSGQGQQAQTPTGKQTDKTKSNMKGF
T4 sequence (Q96SW2 whole entry): as the sequence (Q96SW2 whole entry) above
T4 sequence (Q16531 whole entry partner): as the sequence (Q16531 whole entry partner) above
T2 sequence (P30291 whole entry): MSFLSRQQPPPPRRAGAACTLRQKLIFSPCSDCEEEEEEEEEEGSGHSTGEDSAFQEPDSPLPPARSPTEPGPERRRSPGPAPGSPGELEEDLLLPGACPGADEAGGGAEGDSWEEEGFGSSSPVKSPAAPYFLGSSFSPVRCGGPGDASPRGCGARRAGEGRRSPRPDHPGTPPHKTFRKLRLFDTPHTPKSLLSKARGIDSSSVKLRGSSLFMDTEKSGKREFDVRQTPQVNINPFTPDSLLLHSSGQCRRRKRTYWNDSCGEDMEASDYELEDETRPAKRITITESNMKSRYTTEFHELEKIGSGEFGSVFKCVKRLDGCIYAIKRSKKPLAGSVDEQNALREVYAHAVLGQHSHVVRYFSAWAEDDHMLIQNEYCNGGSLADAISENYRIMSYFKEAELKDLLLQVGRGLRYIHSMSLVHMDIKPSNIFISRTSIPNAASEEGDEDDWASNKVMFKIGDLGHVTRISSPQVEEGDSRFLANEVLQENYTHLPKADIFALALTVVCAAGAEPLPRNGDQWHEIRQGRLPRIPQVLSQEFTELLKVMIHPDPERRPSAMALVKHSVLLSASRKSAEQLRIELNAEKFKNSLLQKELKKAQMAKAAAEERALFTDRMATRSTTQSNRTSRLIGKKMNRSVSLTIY
T2 sequence (Q96SW2 whole entry): as the sequence (Q96SW2 whole entry) above
T2 sequence (Q16531 whole entry partner): as the sequence (Q16531 whole entry partner) above
T5 sequence (Q13422 whole entry): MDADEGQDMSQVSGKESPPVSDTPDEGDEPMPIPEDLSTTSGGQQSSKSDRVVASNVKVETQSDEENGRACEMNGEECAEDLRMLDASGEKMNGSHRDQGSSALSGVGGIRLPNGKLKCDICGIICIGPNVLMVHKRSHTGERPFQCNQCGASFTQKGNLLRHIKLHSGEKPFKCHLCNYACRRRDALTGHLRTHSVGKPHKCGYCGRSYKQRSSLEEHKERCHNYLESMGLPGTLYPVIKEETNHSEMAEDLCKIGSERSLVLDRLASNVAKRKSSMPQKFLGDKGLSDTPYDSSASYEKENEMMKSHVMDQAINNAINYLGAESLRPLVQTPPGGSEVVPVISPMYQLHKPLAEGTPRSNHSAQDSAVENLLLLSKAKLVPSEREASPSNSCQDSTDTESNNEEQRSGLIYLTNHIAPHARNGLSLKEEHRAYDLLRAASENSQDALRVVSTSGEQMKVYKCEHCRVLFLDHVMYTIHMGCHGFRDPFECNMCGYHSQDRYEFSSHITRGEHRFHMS
T5 sequence (Q96SW2 whole entry): as the sequence (Q96SW2 whole entry) above
T5 sequence (Q16531 whole entry partner): as the sequence (Q16531 whole entry partner) above

Compound: O=C1CCC(N2C(=O)c3ccc(CN4CCC(c5c[nH]c6ncccc56)CC4)cc3C2=O)C(=O)N1 (stereo not shown) [GT-06705, 5-((4-(1H-pyrrolo[2,3-b]pyridin-3-yl)piperidin-1-yl)methyl)-2-(2,6-dioxopiperidin-3-yl)isoindoline-1,3-dione]
IC50 [1, 2]: 1500 to 1900 nM | Weel substrate protein remaining % (WEE1; [4]): A (0% ≤ substrate protein remaining % ≤ 80%) | IKZF2 substrate protein remaining % (IKZF2; [4]): B (80%< substrate protein remaining %≤ 100%) | CK1a substrate protein remaining % (CK1α; [4]): B (80%< substrate protein remaining %≤ 100%) | IKZF 1 substrate protein remaining % (IKZF1; [4]): B (80%< substrate protein remaining %≤ 100%) | IKZF3 substrate protein remaining % (IKZF3; [4]): B (80%< substrate protein remaining %≤ 100%) | GSPT1 substrate protein remaining % (GSPT1; [4]): A (0% ≤ substrate protein remaining % ≤ 80%)

Compound: O=C1CCC(N2Cc3cc(CN4CC5CC(C4)N5c4cccc(Cl)c4Cl)ccc3C2=O)C(=O)N1 (stereo not shown) [GT-04897, 3-(5-((6-(2,3-dichlorophenyl)-3,6-diazabicyclo[3.1.1]heptan-3-yl)methyl)-1-oxoisoindolin-2-yl)piperidine-2,6-dione]
IC50 [1, 2]: 1500 to 1900 nM | Weel substrate protein remaining % (WEE1; [3]): B (80%< substrate protein remaining %≤ 100%) | IKZF2 substrate protein remaining % (IKZF2; [3]): B (80%< substrate protein remaining %≤ 100%) | CK1a substrate protein remaining % (CK1α; [3]): B (80%< substrate protein remaining %≤ 100%) | IKZF 1 substrate protein remaining % (IKZF1; [3]): B (80%< substrate protein remaining %≤ 100%) | IKZF3 substrate protein remaining % (IKZF3; [3]): B (80%< substrate protein remaining %≤ 100%) | GSPT1 substrate protein remaining % (GSPT1; [3]): A (0% ≤ substrate protein remaining % ≤ 80%)

Compound: O=C1CCC(N2C(=O)c3ccc(CN4CCN(c5nc6c(c(N7CCOCC7)n5)SCC6)CC4)cc3C2=O)C(=O)N1 (stereo not shown) [GT-06713, 2-(2,6-dioxopiperidin-3-yl)-5-((4-(4-morpholino-6,7-dihydrothieno[3,2-d]pyrimidin-2-yl)piperazin-1-yl)methyl)isoindoline-1,3-dione]
IC50 ([1]; read-out: HTRF IC50; HTRF inhibitory activity, CEREBLON BINDING kit): 1500 to 1900 nM

Compound: Cc1nc(N2CCN(Cc3ccc4c(c3)C(=O)N(C3CCC(=O)NC3=O)C4=O)CC2)c2c(-c3ccccc3)csc2n1 (stereo not shown) [GT-06346, 2-(2,6-dioxopiperidin-3-yl)-5-((4-(2-methyl-5-phenylthieno[2,3-d]pyrimidin-4-yl)piperazin-1-yl)methyl)isoindoline-1,3-dione]
IC50 [1, 2]: 1000 to 1500 nM

Compound: O=C1CCC(N2Cc3ccc(CN4CCC(c5noc6cc(F)ccc56)CC4)cc3C2=O)C(=O)N1 (stereo not shown) [GT-04768, 3-(6-((4-(6-fluorobenzo[d]isoxazol-3-yl)piperidin-1-yl)methyl)-1-oxoisoindolin-2-yl)piperidine-2,6-dione]
IC50 [1, 2]: 1500 to 1900 nM

Compound: O=C1CCC(N2C(=O)c3ccc(CN4CCC(c5ncnc6scc(-c7ccccc7)c56)CC4)cc3C2=O)C(=O)N1 (stereo not shown) [GT-06595, 2-(2,6-dioxopiperidin-3-yl)-5-((4-(5-phenylthieno[2,3-d]pyrimidin-4-yl)piperidin-1-yl)methyl)isoindoline-1,3-dione]
IC50 [1, 2]: 1000 to 1500 nM

Compound: O=C1CCC(N2Cc3cc(CN4CCC(c5noc6cc(F)ccc56)CC4)cc(F)c3C2=O)C(=O)N1 (stereo not shown) [GT-04767, 3-(7-fluoro-5-((4-(6-fluorobenzo[d]isoxazol-3-yl)piperidin-1-yl)methyl)-1-oxoisoindolin-2-yl)piperidine-2,6-dione]
IC50 [1, 2]: 500 to 1000 nM

Compound: O=C1CCC(N2C(=O)c3ccc(CN4CCN(c5ncnc6scc(-c7ccccc7)c56)CC4)cc3C2=O)C(=O)N1 (stereo not shown) [GT-06345, 2-(2,6-dioxopiperidin-3-yl)-5-((4-(5-phenylthieno[2,3-d]pyrimidin-4-yl)piperazin-1-yl)methyl)isoindoline-1,3-dione]
IC50 [1, 2]: 1000 to 1500 nM

Compound: O=C1CCC(N2C(=O)c3ccc(CN4CC(c5ccnc6cc(F)ccc56)C4)cc3C2=O)C(=O)N1 (stereo not shown) [GT-06270, 2-(2,6-dioxopiperidin-3-yl)-5-((3-(7-fluoroquinolin-4-yl)azetidin-1-yl)methyl)isoindoline-1,3-dione]
Weel substrate protein remaining % (WEE1; [4]): B (80%< substrate protein remaining %≤ 100%) | IKZF2 substrate protein remaining % (IKZF2; [4]): B (80%< substrate protein remaining %≤ 100%) | CK1a substrate protein remaining % (CK1α; [4]): B (80%< substrate protein remaining %≤ 100%) | IKZF 1 substrate protein remaining % (IKZF1; [4]): B (80%< substrate protein remaining %≤ 100%) | IKZF3 substrate protein remaining % (IKZF3; [4]): B (80%< substrate protein remaining %≤ 100%) | GSPT1 substrate protein remaining % (GSPT1; [4]): A (0% ≤ substrate protein remaining % ≤ 80%)

Compound: Cc1cc2c(C3CCN(Cc4ccc5c(c4)C(=O)N(C4CCC(=O)NC4=O)C5=O)CC3)ncnc2s1 (stereo not shown) [GT-06592, 2-(2,6-dioxopiperidin-3-yl)-5-((4-(6-methylthieno[2,3-d]pyrimidin-4-yl)piperidin-1-yl)methyl)isoindoline-1,3-dione]
Weel substrate protein remaining % (WEE1; [4]): A (0% ≤ substrate protein remaining % ≤ 80%) | IKZF2 substrate protein remaining % (IKZF2; [4]): A (0% ≤ substrate protein remaining % ≤ 80%) | CK1a substrate protein remaining % (CK1α; [4]): B (80%< substrate protein remaining %≤ 100%) | IKZF 1 substrate protein remaining % (IKZF1; [4]): A (0% ≤ substrate protein remaining % ≤ 80%) | IKZF3 substrate protein remaining % (IKZF3; [4]): A (0% ≤ substrate protein remaining % ≤ 80%) | GSPT1 substrate protein remaining % (GSPT1; [4]): A (0% ≤ substrate protein remaining % ≤ 80%)

Compound: O=C1CCC(N2C(=O)c3ccc(CN4CCc5sccc5C4)cc3C2=O)C(=O)N1 (stereo not shown) [GT-06762, 5-((6,7-dihydrothieno[3,2-c]pyridin-5(4H)-yl)methyl)-2-(2,6-dioxopiperidin-3-yl)isoindoline-1,3-dione]
Weel substrate protein remaining % (WEE1; [4]): A (0% ≤ substrate protein remaining % ≤ 80%) | IKZF2 substrate protein remaining % (IKZF2; [4]): B (80%< substrate protein remaining %≤ 100%) | CK1a substrate protein remaining % (CK1α; [4]): A (0% ≤ substrate protein remaining % ≤ 80%) | IKZF 1 substrate protein remaining % (IKZF1; [4]): A (0% ≤ substrate protein remaining % ≤ 80%) | IKZF3 substrate protein remaining % (IKZF3; [4]): B (80%< substrate protein remaining %≤ 100%) | GSPT1 substrate protein remaining % (GSPT1; [4]): B (80%< substrate protein remaining %≤ 100%)

The next lines start with results.

IC50 [1, 2]: 500 to 1000 nM
Compound: O=C1CCC(N2Cc3cc(CN4CCN(c5nc(Cl)nc6ccsc56)CC4)ccc3C2=O)C(=O)N1 (stereo not shown) [GT-04682, 3-(5-((4-(2-chlorothieno[3,2-d]pyrimidin-4-yl)piperazin-1-yl)methyl)-1-oxoisoindolin-2-yl)piperidine-2,6-dione]
Weel substrate protein remaining % (WEE1; [3]): B (80%< substrate protein remaining %≤ 100%) | IKZF2 substrate protein remaining % (IKZF2; [3]): B (80%< substrate protein remaining %≤ 100%) | CK1a substrate protein remaining % (CK1α; [3]): A (0% ≤ substrate protein remaining % ≤ 80%) | IKZF 1 substrate protein remaining % (IKZF1; [3]): B (80%< substrate protein remaining %≤ 100%) | IKZF3 substrate protein remaining % (IKZF3; [3]): B (80%< substrate protein remaining %≤ 100%) | GSPT1 substrate protein remaining % (GSPT1; [3]): A (0% ≤ substrate protein remaining % ≤ 80%)

IC50 [1, 2]: < 500 nM
Compound: O=C1CCC(N2Cc3cc(CN4CCN(c5nc6c(c(N7CCNCC7)n5)SCC6)CC4)ccc3C2=O)C(=O)N1 (stereo not shown) [GT-04720, 3-(1-oxo-5-((4-(4-(piperazin-1-yl)-6,7-dihydrothieno[3,2-d]pyrimidin-2-yl)piperazin-1-yl)methyl)isoindolin-2-yl)piperidine-2,6-dione]

IC50 [1, 2]: < 500 nM
Compound: O=C1CCC(N2Cc3cc(CN4CCN(c5c(Cl)cncc5Cl)CC4)ccc3C2=O)C(=O)N1 (stereo not shown) [GT-04436, 3-(5-((4-(3,5-dichloropyridin-4-yl)piperazin-1-yl)methyl)-1-oxoisoindolin-2-yl)piperidine-2,6-dione]

IC50 [1, 2]: 500 to 1000 nM
Compound: O=C1CCC(N2Cc3cc(CN4CCN(c5c(Cl)ccnc5Cl)CC4)ccc3C2=O)C(=O)N1 (stereo not shown) [GT-04896, 3-(5-((4-(2,4-dichloropyridin-3-yl)piperazin-1-yl)methyl)-1-oxoisoindolin-2-yl)piperidine-2,6-dione]

IC50 [1, 2]: 500 to 1000 nM
Compound: O=C1CCC(N2Cc3cc(CN4CCN(c5nc(Cl)nc6c5SCC6)CC4)ccc3C2=O)C(=O)N1 (stereo not shown) [GT-04683, 3-(5-((4-(2-chloro-6,7-dihydrothieno[3,2-d]pyrimidin-4-yl)piperazin-1-yl)methyl)-1-oxoisoindolin-2-yl)piperidine-2,6-dione]

IC50 [1, 2]: < 500 nM
Compound: Cc1nc(N2CCN(Cc3ccc4c(c3)CN(C3CCC(=O)NC3=O)C4=O)CC2)c2c(-c3ccccc3)csc2n1 (stereo not shown) [GT-05100, 3-(5-((4-(2-methyl-5-phenylthieno[2,3-d]pyrimidin-4-yl)piperazin-1-yl)methyl)-1-oxoisoindolin-2-yl)piperidine-2,6-dione]

IC50 [1, 2]: < 500 nM
Compound: O=C1CCC(N2Cc3cc(CN4CCN(c5ccnc(Cl)c5)CC4)ccc3C2=O)C(=O)N1 (stereo not shown) [GT-04435, 3-(5-((4-(2-chloropyridin-4-yl)piperazin-1-yl)methyl)-1-oxoisoindolin-2-yl)piperidine-2,6-dione]

IC50 [1, 2]: 1500 to 1900 nM
Compound: O=C1CCC(N2C(=O)c3ccc(CN4CCN(c5ccc(Cl)nn5)CC4)cc3C2=O)C(=O)N1 (stereo not shown) [GT-06605, 5-((4-(6-chloropyridazin-3-yl)piperazin-1-yl)methyl)-2-(2,6-dioxopiperidin-3-yl)isoindoline-1,3-dione]
